Results: ChEMBL document CHEMBL1142667, “Modulation of MRP-1-mediated multidrug resistance by indomethacin analogues” (J Med Chem, 2005)
Activity calls are given as the source filed them. No cut-off for these calls is given here.

Test system: T98G
Experiment: Effect of compound (10 uM) on doxorubicin-induced cytotoxicity towards T98G cell line expressing multidrug resistance associated protein 1 (MRP-1)
Assay type: functional, cell-based
Settings: Homo sapiens

Structure (SMILES)	Effect
COc1ccc2c(c1)c(CCC(=O)O)c(C)n2C(=O)c1ccc(-c2ccccc2)cc1	Active

Test system: T98G
Experiment: Effect of compound (10 uM) on doxorubicin-induced cytotoxicity towards T98G cell line expressing multidrug resistance associated protein 1 (MRP-1); Toxic
Assay type: functional, cell-based
Settings: Homo sapiens

Structure (SMILES)	Effect
CN1CCc2c(c3cc(S(=O)(=O)O)ccc3n2C(=O)c2ccc(Cl)cc2)C1	Toxic
Cc1c(CCCC(=O)O)c2cc(S(=O)(=O)O)ccc2n1C(=O)c1ccc(Cl)cc1	Toxic
CCCCCCCCCCc1c(C)n(C(=O)c2ccc(-c3ccccc3)cc2)c2ccc(S(=O)(=O)O)cc12	Toxic
CCOC(=O)CCc1c(C)n(C(=O)c2cccs2)c2ccc(OC)cc12	Toxic
Cc1c(Cc2ccccc2)c2cc(S(=O)(=O)O)ccc2n1C(=O)c1ccco1	Toxic

Test system: T98G
Experiment: Effect of compound (10 uM) on doxorubicin-induced cytotoxicity towards T98G cell line expressing multidrug resistance associated protein 1 (MRP-1); Active
Assay type: functional, cell-based
Settings: Homo sapiens

Structure (SMILES)	Effect
COc1ccc2c(c1)c(CC(=O)O)c(C)n2C(=O)c1ccc(-c2ccccc2)cc1	Active
COc1ccc2c(c1)c(CC(=O)O)c(C)n2C(=O)c1ccc(N(C)C)cc1	Active
Cc1c(Cc2ccc(O)cc2)c2cc(S(=O)(=O)O)ccc2n1C(=O)c1ccc(Cl)cc1	Active
Cc1c(CCCC(=O)O)c2cc(C(=O)O)ccc2n1C(=O)c1ccc(Cl)cc1	Active
COc1ccc2c(c1)c(CC(=O)O)c(C)n2C(=O)c1ccc(Cl)cc1	Active
COc1ccc2c(c1)c(CC(=O)O)c(C)n2C(=O)c1cccs1	Active
O=C(c1ccccn1)n1c2c(c3cc(S(=O)(=O)O)ccc31)CCCC2	Active
O=C(c1ccccc1)N1CCc2c(c3cc(S(=O)(=O)O)ccc3n2C(=O)c2ccc(Cl)cc2)C1	Active
COc1ccc2c(c1)c(CC(=O)O)c(C)n2C(=O)c1ccc(C)cc1	Active
O=C(c1ccccn1)n1c2c(c3cc(S(=O)(=O)O)ccc31)CSCC2	Active
O=C(c1ccccc1)N1CCc2c(c3cc(S(=O)(=O)O)ccc3n2C(=O)c2ccc(-c3ccccc3)cc2)C1	Active
CCCCCCCCCCc1c(C)n(C(=O)c2ccc(Cl)cc2)c2ccc(C(=O)O)cc12	Active
COc1ccc2c(c1)c(CCC(=O)O)c(C)n2C(=O)c1ccc(N(C)C)cc1	Active
COc1ccc2c(c1)c(CC(=O)O)c(C)n2C(=O)c1ccc(F)cc1	Active
COc1ccc2c(c1)c(CCCC(=O)O)c(C)n2C(=O)c1ccccn1	Active
O=C(c1ccc(-c2ccccc2)cc1)n1c2c(c3cc(S(=O)(=O)O)ccc31)CSCC2	Active
O=C(c1ccc(-c2ccccc2)cc1)n1c2c(c3cc(S(=O)(=O)O)ccc31)CCCC2	Active
COc1ccc2c(c1)c(CCCC(=O)O)c(C)n2C(=O)c1ccc(N(C)C)cc1	Active
CCOC(=O)CCCc1c(C)n(C(=O)c2ccc(N(C)C)cc2)c2ccc(OC)cc12	Active
COc1ccc2c(c1)c(CCCC(=O)O)c(C)n2C(=O)c1cccs1	Active

Test system: T98G
Experiment: Effect of compound (10 uM) on doxorubicin-induced cytotoxicity towards T98G cell line expressing multidrug resistance associated protein 1 (MRP-1); Inactive
Assay type: functional, cell-based
Settings: Homo sapiens

Structure (SMILES)	Effect
COC(=O)CCCc1c(C)n(C(=O)c2ccc(Cl)cc2)c2ccc(S(=O)(=O)O)cc12	inactive
CCc1c(C)n(C(=O)c2ccco2)c2ccc(S(=O)(=O)O)cc12	inactive
Cc1c(Cc2ccccc2)c2cc(S(=O)(=O)O)ccc2n1C(=O)c1ccc(Cl)cc1	inactive
Cc1c(CCC(=O)O)c2cc(S(=O)(=O)O)ccc2n1C(=O)c1ccco1	inactive
Cc1c(Cc2ccc(O)cc2)c2cc(S(=O)(=O)O)ccc2n1C(=O)c1ccc(-c2ccccc2)cc1	inactive
CN1CCc2c(c3cc(S(=O)(=O)O)ccc3n2C(=O)c2ccc(-c3ccccc3)cc2)C1	inactive
O=C(c1ccccc1)N1CCc2c(c3cc(S(=O)(=O)O)ccc3n2C(=O)c2ccco2)C1	inactive
CCc1c(C)n(C(=O)c2ccc(Cl)cc2)c2ccc(S(=O)(=O)O)cc12	inactive
O=C(c1ccco1)n1c2c(c3cc(S(=O)(=O)O)ccc31)CSCC2	inactive
O=C(c1ccc(Cl)cc1)n1c2c(c3cc(S(=O)(=O)O)ccc31)CSCC2	inactive
CCCCCCCCCCc1c(C)n(C(=O)c2ccc(Cl)cc2)c2ccc(S(=O)(=O)O)cc12	inactive
COc1ccc2c(c1)c(CC(=O)O)c(C)n2C(=O)c1ccccn1	inactive
COC(=O)CCc1c(C)n(C(=O)c2ccco2)c2ccc(S(=O)(=O)O)cc12	inactive
COc1ccc2c(c1)c(CC(=O)O)c(C)n2C(=O)c1ccco1	inactive
Cc1c(CCCC(=O)O)c2cc(S(=O)(=O)O)ccc2n1C(=O)c1ccc(-c2ccccc2)cc1	inactive
O=C(c1ccc(Cl)cc1)n1c2c(c3cc(S(=O)(=O)O)ccc31)CCCCCC2	inactive
O=C(c1ccc(Cl)cc1)n1c2c(c3cc(S(=O)(=O)O)ccc31)CCCC2	inactive
COc1ccc2c(c1)c(CCC(=O)O)c(C)n2C(=O)c1ccccn1	inactive
COC(=O)CCCc1c(C)n(C(=O)c2ccco2)c2ccc(S(=O)(=O)O)cc12	inactive
CCCCCCCCCCc1c(C)n(C(=O)c2ccco2)c2ccc(S(=O)(=O)O)cc12	inactive
Cc1c(CCCC(=O)O)c2cc(S(=O)(=O)O)ccc2n1C(=O)c1ccco1	inactive
O=C(c1ccco1)n1c2c(c3cc(S(=O)(=O)O)ccc31)CCCC2	inactive
Cc1c(Cc2ccccc2)c2cc(S(=O)(=O)O)ccc2n1C(=O)c1ccc(-c2ccccc2)cc1	inactive
Cc1c(CC(=O)O)c2cc(Br)ccc2n1C(=O)c1ccco1	inactive

Test system: T98G
Experiment: Effect of compound (10 uM) on doxorubicin-induced cytotoxicity towards T98G cell line expressing multidrug resistance associated protein 1 (MRP-1); Very active
Assay type: functional, cell-based
Settings: Homo sapiens

Structure (SMILES)	Effect
COc1ccc2c(c1)c(CCCC(=O)O)c(C)n2C(=O)c1ccc(Br)cc1	Active
COc1ccc2c(c1)c(CCCC(=O)O)c(C)n2C(=O)c1ccc(Cl)cc1	Active
Cc1ccc2c(c1)c(CCCC(=O)O)c(C)n2C(=O)c1ccc(Cl)cc1	Active
O=C(O)c1ccc2c(c1)c1c(n2C(=O)c2ccc(Cl)cc2)CCCC1	Active
Cc1ccc2c(c1)c(CCC(=O)O)c(C)n2C(=O)c1ccc(Cl)cc1	Active
O=C(O)c1ccc2c(c1)c1c(n2C(=O)c2ccc(Cl)cc2)CCSC1	Active
COc1ccc2c(c1)c(CC(=O)O)c(C)n2C(=O)c1ccc(Br)cc1	Active
COc1ccc2c(c1)c(CCC(=O)O)c(C)n2C(=O)c1ccc(Br)cc1	Active
COc1ccc2c(c1)c(CCC(=O)O)c(C)n2C(=O)c1ccc(Cl)cc1	Active
